Among the data in patent US10407435B2, “Diheteroaryl histone deacetylase inhibitors and their use in therapy” (Karus Therapeutics Limited, priority 2014, dated 2019) are IC50 and clearance values, retold here.

For one series, the target named is HDAC1 (Homo sapiens, UniProt Q13547). Description: Biochemical Selectivity: HDAC1 inhibition. From the text: (§1) Compounds of the invention may be tested for HDAC inhibitory activity by any suitable assay, e.g. the assay described in WO2008/062201.
The next series deals with T1, HDAC6 (Homo sapiens, UniProt Q9UBN7).
T1 sequence (Q9UBN7 1-1215): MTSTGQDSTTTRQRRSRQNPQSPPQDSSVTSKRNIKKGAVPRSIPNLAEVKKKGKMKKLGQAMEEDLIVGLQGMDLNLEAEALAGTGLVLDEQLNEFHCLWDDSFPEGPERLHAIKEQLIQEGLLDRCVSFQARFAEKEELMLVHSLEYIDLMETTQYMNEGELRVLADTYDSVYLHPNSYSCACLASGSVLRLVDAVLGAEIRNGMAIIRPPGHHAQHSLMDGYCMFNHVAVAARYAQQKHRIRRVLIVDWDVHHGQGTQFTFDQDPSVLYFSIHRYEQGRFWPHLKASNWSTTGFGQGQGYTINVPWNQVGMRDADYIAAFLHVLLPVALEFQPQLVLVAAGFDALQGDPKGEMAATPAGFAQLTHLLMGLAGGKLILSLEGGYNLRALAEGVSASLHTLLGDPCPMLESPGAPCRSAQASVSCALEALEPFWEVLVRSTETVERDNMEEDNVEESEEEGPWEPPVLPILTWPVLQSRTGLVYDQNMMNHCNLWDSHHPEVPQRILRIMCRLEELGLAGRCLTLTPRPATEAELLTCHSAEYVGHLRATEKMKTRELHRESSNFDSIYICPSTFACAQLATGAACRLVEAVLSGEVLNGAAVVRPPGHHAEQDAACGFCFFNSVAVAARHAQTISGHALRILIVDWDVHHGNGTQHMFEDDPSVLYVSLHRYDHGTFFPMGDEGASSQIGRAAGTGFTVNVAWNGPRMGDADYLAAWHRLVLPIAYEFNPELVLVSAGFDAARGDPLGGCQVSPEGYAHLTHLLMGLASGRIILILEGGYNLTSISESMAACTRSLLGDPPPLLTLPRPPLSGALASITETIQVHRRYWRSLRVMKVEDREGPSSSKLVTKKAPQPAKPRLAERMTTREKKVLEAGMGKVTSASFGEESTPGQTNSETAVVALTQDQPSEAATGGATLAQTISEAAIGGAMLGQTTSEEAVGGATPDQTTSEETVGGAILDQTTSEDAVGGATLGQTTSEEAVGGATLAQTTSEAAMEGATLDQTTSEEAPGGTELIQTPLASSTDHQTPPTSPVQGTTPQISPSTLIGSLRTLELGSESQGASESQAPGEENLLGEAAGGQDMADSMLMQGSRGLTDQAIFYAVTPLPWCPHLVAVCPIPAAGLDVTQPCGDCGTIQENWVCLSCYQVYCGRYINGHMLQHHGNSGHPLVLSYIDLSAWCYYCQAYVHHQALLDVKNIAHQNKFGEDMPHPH
Description: Biochemical Selectivity: HDAC6 inhibition.
From the text: as §1

The nature of series [1]: Plasma clearance following IV dosing, CD1 mice (Example 3 of WO 2010/086646 protocol). The conditions noted are these: mouse, male CD1 mice, 5 mg/kg intravenously, 10% NMP/90% water. Type of series: in vivo. Here is the method: Compound was administered both intravenously and orally to mice. Blood samples were collected at up to 7 time points over 8 hours and plasma was analysed by LC-MS/MS to determine the concentration of compound at each time point. The plasma time concentration profile was delivered along with the main calculated PK parameters (Co, Cmax, AUC-last, t1/2, tmax, Vd, and CL).
Three male CD1 mice, 25-30 g, were dosed per administration route per timepoint. Compound was administered both orally (10 mg compound per kg of body weight) and intravenously (5 mg compound per kg body weight). The excipient used was 10% NMP/90% water. Animals were given free access to food throughout the study.
At the following time points, the animals were anaesthetized, blood collected in heparinized tubes and animals were sacrificed:
Blood samples were centrifuged to obtain the plasma, which was transferred to a separate, labelled container. Aliquots from the individual time points for the three animals were analyzed singly. Protein was precipitated by adding three volumes of methanol and centrifuging for 30 min at 4° C. […] The plasma samples were quantified by LC-MS/MS and the concentration of compound in plasma was reported in μg/mL. Pharmacokinetic parameters were calculated employing non-compartmental model analysis.

A short description of series [2]: Plasma clearance following IV dosing, Balb/c mice (Example D protocol). The format is in vivo. The conditions noted are these: mouse, male Balb/c mice, 3 mg/kg i.v., 5% NMP, 5% solutol HS-15 in 90% HPβCD solution. Here is the method: A group of eighteen male Balb/c mice were divided into two groups Group 1 (3 mg/kg; i.v.), Group 2 (10 mg/kg; p.o.) with each group comprising of nine mice. Animals in Group 1 were administered intravenously with Example D solution formulation in 5% NMP, 5% solutol HS-15 in 90% HPβCD solution (20% HPβCD in RO water) at 3 mg/kg dose while animals in Group 2 were administered orally with 10 mg/kg solution formulation of Example D in 5% NMP, 5% solutol HS-15 in 90% HPβCD solution (20% HPβCD in RO water). Blood samples (approximately 60 μL) were collected from retro orbital plexus under light isoflurane anesthesia such that the samples were obtained at pre-dose, 0.08, 0.25, 0.5, 1, 2, 4, 8 and 24 hr (i.v.) and pre-dose, 0.25, 0.5, 1, 2, 4, 6, 8 and 24 hr (p.o.). The blood samples were collected from set of three mice at each time point in labeled micro centrifuge tube containing K2EDTA as anticoagulant. Plasma samples were separated by centrifugation of whole blood and stored below −70° C. until bioanalysis. All samples were processed for analysis by protein precipitation using acetonitrile (ACN) and analyzed with fit for purpose LC/MS/MS method (LLOQ: 1.27 ng/mL). Pharmacokinetic parameters were calculated using the non-compartmental analysis tool of Phoenix WinNonlin (Version 6.3).

The nature of series [3]: Plasma clearance following IV dosing, CD1 mouse (Example A of WO 2014/072714 protocol). Type of series: in vivo. As to conditions: male CD1 mouse, 5 mg/kg I.V., 10% DMSO, 15% Cremophor, 75% Saline. Here is the method:
Formulation: Solutions in 10% DMSO, 15% Cremophor, 75% Saline
Dosing: 10 mg/kg P.O. and 5 mg/kg I.V.
Protocol: • n=3 male mice per time point per route; • Terminal blood sampling at 8 time points (5 min, 10 min, 0.5 hr, 1 hr, 3 hr, 6 hr, 8 hr and, 24 hr); • Collection of plasma, bio-analysis and report of AUC, AUMC, Vss, CL, half life, MRT and bioavailability.

Chain of HDAC1 (Q13547 whole entry, species assumed): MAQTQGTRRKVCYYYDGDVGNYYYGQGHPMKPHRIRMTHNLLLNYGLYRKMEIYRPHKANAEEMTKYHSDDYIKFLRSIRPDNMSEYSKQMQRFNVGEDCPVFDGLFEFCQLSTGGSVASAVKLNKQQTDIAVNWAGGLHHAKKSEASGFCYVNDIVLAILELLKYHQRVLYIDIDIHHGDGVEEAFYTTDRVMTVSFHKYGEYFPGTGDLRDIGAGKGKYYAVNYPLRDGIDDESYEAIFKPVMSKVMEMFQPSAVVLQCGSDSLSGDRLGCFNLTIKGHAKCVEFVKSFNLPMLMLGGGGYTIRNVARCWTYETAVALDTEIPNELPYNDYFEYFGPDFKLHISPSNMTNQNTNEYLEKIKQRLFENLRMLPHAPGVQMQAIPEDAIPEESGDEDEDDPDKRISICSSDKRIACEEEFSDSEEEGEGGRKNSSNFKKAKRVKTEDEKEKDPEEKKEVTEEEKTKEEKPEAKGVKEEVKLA

For `O=C(CCCCCCN(c1cnccn1)c1cnccn1)NO` [Example A, 7-[Bis(pyrazin-2-yl)amino]-N-hydroxyheptanamide], the IC50 is above 1000 nM against HDAC1 and at most 100 nM against HDAC6. In series [1], `O=C(CCCCCCN(c1ccccn1)c1ccccn1)NO` [Example 3 of WO 2010/086646] showed a clearance of 374 mL/min/kg. Take `O=C(CCCCCCN(c1cnccn1)c1nccn2ncnc12)NO` [Example B]: the figures for the IC50 against HDAC1 and against HDAC6 were above 1000 nM and at most 100 nM, respectively.

On to `O=C(CCCCCCN(c1ccncn1)c1cnccn1)NO` [Example K, N-Hydroxy-7-[(pyrazin-2-yl)(pyrimidin-4-yl)amino]heptanamide], for which the IC50 on HDAC1 and at HDAC6 was 100 to 1000 nM throughout.

`O=C(CCCCCCN(c1cnccn1)c1ncncc1F)NO` [Example H, 7-[(5-Fluoropyrimidin-4-yl)(pyrazin-2-yl)amino]-N-hydroxyheptanamide]: the IC50 against HDAC1 is above 1000 nM; against HDAC6 it was at most 100 nM. Taken in the same sequence, the figures for `Cn1ncc2ncnc(N(CCCCCCC(=O)NO)c3cnccn3)c21` [Example P, N-hydroxy-7-({1-methyl-1H-pyrazolo[4,3-d]pyrimidin-7-yl}(pyrazin-2-yl)amino)heptanamide] were above 1000 nM and at most 100 nM. Taken in the same sequence, the figures for `Cc1nsc(N(CCCCCCC(=O)NO)c2ccnc(N3CCOCC3)n2)n1` [Example G, N-Hydroxy-7-[(3-methyl-1,2,4-thiadiazol-5-yl)[2-(morpholin-4-yl)pyrimidin-4-yl]amino]heptanamide] were 100 to 1000 nM and at most 100 nM. For `COCc1cc(N(CCCCCCC(=O)NO)c2nc(C)ns2)ncn1` [Example M, N-hydroxy-7-{[6-(methoxymethyl)pyrimidin-4-yl](3-methyl-1,2,4-thiadiazol-5-yl)amino}heptanamide], the IC50 is above 1000 nM on HDAC1 and at most 100 nM at HDAC6. Taken in the same sequence, the figures for `CN(C)c1ccc(N(CCCCCCC(=O)NO)c2cnccn2)nn1` [Example O, 7-{[6-(dimethylamino)pyridazin-3-yl](pyrazin-2-yl)amino}-N-hydroxyheptanamide] were 100 to 1000 nM and at most 100 nM. Taken in the same sequence, the figures for `COc1ccc(N(CCCCCCC(=O)NO)c2cnccn2)nn1` [Example E, N-Hydroxy-7-[(6-methoxypyridazin-3-yl)(pyrazin-2-yl)amino]heptanamide] were 100 to 1000 nM and at most 100 nM. `Cc1cc(C(=O)N(C)C)nc(N(CCCCCCC(=O)NO)c2nc(C)ns2)n1` [Example L, 2-{[6-(hydroxycarbamoyl)hexyl](3-methyl-1,2,4-thiadiazol-5-yl)amino}-N,N,6-trimethylpyrimidine-4-carboxamide]: the IC50 is 100 to 1000 nM against HDAC1 and at most 100 nM against HDAC6. In the same order, the values of `O=C(CCCCCCN(c1cnccn1)c1ccn2nccc2n1)NO` [Example C, N-Hydroxy-7-[(pyrazin-2-yl)({pyrazolo[1,5-a]pyrimidin-5-yl})amino]heptanamide] are 100 to 1000 nM and at most 100 nM. Turning to `O=C(CCCCCCN(c1cnccn1)c1ccc2nccn2n1)NO` [Example F, N-Hydroxy-7-({imidazo[1,2-b]pyridazin-6-yl}(pyrazin-2-yl)amino) heptanamide], the IC50 was 100 to 1000 nM at HDAC1 and at most 100 nM against HDAC6. In the same order, the values of `O=C(CCCCCCN(c1cnccn1)c1ncnc2occc12)NO` [Example J, 7-({Furo[2,3-d]pyrimidin-4-yl}(pyrazin-2-yl)amino)-N-hydroxyheptanamide] are above 1000 nM and at most 100 nM. In the case of `O=C(CCCCCCN(c1cnccn1)c1ccc(C(F)(F)F)nn1)NO` [Example D, N-Hydroxy-7-[(pyrazin-2-yl)[6-(trifluoromethyl)pyridazin-3-yl]amino]heptanamide], the IC50 at HDAC1 was 100 to 1000 nM; at HDAC6, at most 100 nM. The compound further registered a clearance in series [2] of 48.6 mL/min/kg. Consider `Cc1noc(N(CCCCCCC(=O)NO)c2cncc(N3CCOCC3)n2)n1` [Example S, N-hydroxy-7-[(3-methyl-1,2,4-oxadiazol-5-yl)[6-(morpholin-4-yl)pyrazin-2-yl]amino]heptanamide], for which the IC50 against HDAC1 was above 1000 nM; against HDAC6 it was at most 100 nM. For `Cn1ccc2ncnc(N(CCCCCCC(=O)NO)c3cnccn3)c21` [Example N, N-hydroxy-7-({5-methyl-5H-pyrrolo[3,2-d]pyrimidin-4-yl}(pyrazin-2-yl)amino) heptanamide], the figures for the IC50 on HDAC1 and on HDAC6 were above 1000 nM and at most 100 nM, respectively. In the same order, the values of `CN(C)c1cc(N(CCCCCCC(=O)NO)c2cnccn2)ncn1` [Example I, 7-{[6-(Dimethylamino)pyrimidin-4-yl](pyrazin-2-yl)amino}-N-hydroxyheptanamide] are above 1000 nM and at most 100 nM. As to `CN(C)c1cnc(N(CCCCCCC(=O)NO)c2cnccn2)cn1` [Example Q, 7-{[5-(dimethylamino)pyrazin-2-yl](pyrazin-2-yl)amino}-N-hydroxyheptanamide], the values for the IC50 against HDAC1 and at HDAC6 were 100 to 1000 nM and at most 100 nM, respectively. Taken in the same sequence, the figures for `O=C(CCCCCCN(c1cncnc1)c1cnccn1)NO` [Example R, N-hydroxy-7-[(pyrazin-2-yl)(pyrimidin-5-yl)amino]heptanamide] were above 1000 nM and at most 100 nM. Compound `Cc1nsc(N(CCCCCCC(=O)NO)c2ccccn2)n1` [Example A of WO 2014/072714] showed a clearance in series [3] of 253 mL/min/kg.
